One test concerns the target Human HDAC6 (Homo sapiens (Human), UniProt Q9UBN7). Kind of test: In vitro HDAC6 enzymatic activity (Caliper endpoint assay or fluorogenic Nanosyn assay). It is filed as biochemical. The following applies: ratio of HDAC8 IC50/HDAC6 IC50.
The next test addresses Human HDAC8 (Homo sapiens (Human), UniProt Q9BY41). Kind of test: In vitro HDAC8 enzymatic activity (Caliper endpoint assay). Type of test: biochemical.

The source of these data is patent US20250250263A1, “INHIBITING HISTONE DEACETYLASE 6 (HDAC6)” (Eikonizo Therapeutics, Inc., priority 2022, published 2025).

Chain of Human HDAC6 (Q9UBN7 whole entry): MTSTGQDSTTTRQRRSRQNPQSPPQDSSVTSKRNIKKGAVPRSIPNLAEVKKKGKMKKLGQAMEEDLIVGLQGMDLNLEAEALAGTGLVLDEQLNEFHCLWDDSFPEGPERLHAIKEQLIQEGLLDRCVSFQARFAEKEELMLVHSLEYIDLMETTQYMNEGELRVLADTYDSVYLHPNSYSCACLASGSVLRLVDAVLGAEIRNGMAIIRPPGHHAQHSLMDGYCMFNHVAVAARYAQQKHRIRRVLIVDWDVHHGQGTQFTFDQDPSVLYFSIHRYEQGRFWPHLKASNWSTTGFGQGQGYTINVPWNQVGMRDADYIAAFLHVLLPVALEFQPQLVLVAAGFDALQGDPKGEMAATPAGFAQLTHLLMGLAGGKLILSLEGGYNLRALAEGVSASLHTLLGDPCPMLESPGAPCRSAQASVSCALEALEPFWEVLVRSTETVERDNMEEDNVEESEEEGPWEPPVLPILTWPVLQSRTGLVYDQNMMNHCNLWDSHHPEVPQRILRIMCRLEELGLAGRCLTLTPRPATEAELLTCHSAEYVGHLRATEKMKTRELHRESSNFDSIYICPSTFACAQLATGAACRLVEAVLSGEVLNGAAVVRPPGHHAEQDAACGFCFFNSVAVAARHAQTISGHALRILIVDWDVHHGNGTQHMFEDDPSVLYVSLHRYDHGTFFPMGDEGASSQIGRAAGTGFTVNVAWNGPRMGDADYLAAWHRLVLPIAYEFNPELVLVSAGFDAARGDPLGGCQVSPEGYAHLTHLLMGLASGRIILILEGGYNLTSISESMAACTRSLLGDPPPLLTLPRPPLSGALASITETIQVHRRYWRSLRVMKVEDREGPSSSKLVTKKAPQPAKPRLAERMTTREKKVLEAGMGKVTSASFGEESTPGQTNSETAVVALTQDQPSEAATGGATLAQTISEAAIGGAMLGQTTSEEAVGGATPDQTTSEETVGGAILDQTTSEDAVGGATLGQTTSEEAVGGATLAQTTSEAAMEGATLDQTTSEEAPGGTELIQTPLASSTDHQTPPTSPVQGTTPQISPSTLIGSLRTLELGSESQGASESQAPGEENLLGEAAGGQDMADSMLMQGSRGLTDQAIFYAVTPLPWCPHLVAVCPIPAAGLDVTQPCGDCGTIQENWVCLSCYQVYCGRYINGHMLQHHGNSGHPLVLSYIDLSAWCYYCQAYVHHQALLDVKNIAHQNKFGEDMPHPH
Chain of Human HDAC8 (Q9BY41 whole entry): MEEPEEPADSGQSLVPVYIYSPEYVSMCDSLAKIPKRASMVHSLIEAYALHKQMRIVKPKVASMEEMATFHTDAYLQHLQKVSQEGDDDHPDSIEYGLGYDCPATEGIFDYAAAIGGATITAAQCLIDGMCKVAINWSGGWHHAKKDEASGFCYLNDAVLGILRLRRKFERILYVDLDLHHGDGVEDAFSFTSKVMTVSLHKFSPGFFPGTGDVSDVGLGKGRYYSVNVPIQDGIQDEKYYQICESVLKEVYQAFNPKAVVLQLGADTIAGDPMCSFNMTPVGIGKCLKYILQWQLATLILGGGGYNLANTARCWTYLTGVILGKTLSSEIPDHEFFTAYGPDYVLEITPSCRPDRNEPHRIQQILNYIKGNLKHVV

What is called IC50 is the midpoint of a concentration-inhibition curve. Read a high IC50 as weaker potency in that assay. Turning to `FC(F)c1nnc(-c2ccc(COc3ccc4cccnc4c3)nc2)o1` [Compound 34], the “Selectivity (6 v 8) (fold)” value at Human HDAC6 was “V (V: >1000)”. Besides, at Human HDAC8, the concentration for half-maximal inhibition (IC50) was more than 100 µM.

As for `N#Cc1cc(OCc2ccc(-c3nnc(C(F)F)o3)cn2)ccc1F` [Compound 30, 5-((5-(5-(difluoromethyl)-1,3,4-oxadiazol-2-yl)pyridin-2-yl)methoxy)-2-fluorobenzonitrile], the “Selectivity (6 v 8) (fold)” value on Human HDAC6 is “IV (IV: >100-1000)”.

As to `FC(F)c1nnc(-c2ccc(COc3cccc4ncccc34)nc2)o1` [Compound 63], on Human HDAC6, the “Selectivity (6 v 8) (fold)” value was “V (V: >1000)”. In addition, the IC50 against Human HDAC8 was more than 100 µM.
